# According to PMC8639922, “KSHV transactivator-derived small peptide traps coactivators to attenuate MYC and inhibits leukemia and lymphoma cell growth” (Communications Biology, 2021):
# Square brackets hold non-standard residues; d marks the D form. Peptide text beside a SMILES is read from it. Orn = NCCC[C@H](N)C(=O)O; βAla = NCCC(=O)O
# Test system: PEL-derived human cytokines
# Test: Olink INFLAMMATION panel, cytokines in ascites fluid of PEL xenograft
# Assay type: in vivo, mouse
# Set-up: key to IL8 / CXCL10 / FGF-19 / IL-12B / TRAIL / VEGFA / IL-17A / CST5 / IL-18R1 / HGF / ARTN / bNGF: NPX, log2-normalized protein expression; key to 4E-BP1 / TWEAK / LAP TGF-beta-1 / Beta-NGF / LAPTGFb-1 / TWAEK / 4EBP-1 / IL-8: log2-scale normalized protein expression (NPX) values
# Method: Fig. 6 VGN50 inhibits BCBL-1 cell growth in xenograft mice. a PEL-xenograft. BCBL-1 cells (2 × 10^7 cells) were injected i.p. Peptide (10 mg/kg) was administrated i.p. daily and tumor growth was monitored by measurement of body weight (n = 6–9 mice per group). b Ascites volume and PEL cell counts. In a separate experiment, ascites volume and PEL cell counts in ascites fluid were measured at day 10. (n = 3–4 mice per group) c Induction of atrophy. BCBL-1 cells isolated from ascites fluid were measured for FSC-A and SSC-A by flow cytometry. […] (n = 3) d Expression of inflammatory cytokines. Principal component analysis based on expression levels of inflammatory cytokine contents in ascites fluid. e Cytokine heat map. Heatmap generated based on abundance of the indicated cytokines in ascites fluids. Ascites fluid was taken at day 10. a–c Data were analyzed using ordinary one-way Anova followed by Tukey’s multiple comparisons test.
# Since PELs are frequently involved in effusions in multiple body cavities in human patients and the amounts of inflammatory cytokines in the effusion are strong prognostic factors, we also extracted ascites fluid and profiled it to see if the PEL cell-derived human cytokine profile was also altered by continued VGN50 treatment.
# PEL-derived cytokine profiles in ascites were measured with Olink analysis service with the Olink INFLAMMATION panel using proximity extension technology, a high-throughput multiplex proteomic immunoassay. In short, the panel includes 92 immune-related proteins, primarily cytokines and chemokines. The assay utilizes epitope-specific binding and hybridization of a set of paired oligonucleotide antibody probes, which is subsequently amplified using quantitative PCR, resulting in log base 2-normalized protein expression (NPX) values. The data was processed and analyzed with Olink Insight Stat Analysis software.
smiles,measurement,setting,value
CC(C)C[C@H](NC(=O)CCNC(=O)[C@H](CCCNC(=N)N)NC(=O)[C@H](CCCNC(=N)N)NC(=O)[C@H](CCCNC(=N)N)NC(=O)[C@H](CCCN)NC(=O)[C@H](CCCNC(=N)N)NC(=O)[C@H](CCCNC(=N)N)NC(=O)[C@H](CCCCN)NC(=O)[C@H](CCCCN)NC(=O)[C@H](N)CCCNC(=N)N)C(=O)N[C@@H](CO)C(=O)N[C@@H](CO)C(=O)N[C@@H](C)C(=O)N[C@@H](C)C(=O)N[C@@H](C)C(=O)NCC(=O)N[C@@H](CC(C)C)C(=O)N[C@@H](Cc1ccc(O)cc1)C(=O)N[C@@H](CCC(N)=O)C(=O)N[C@@H](CC(C)C)C(=O)N[C@@H](CC(=O)O)C(=O)N[C@H](C(=O)O)[C@@H](C)O [Mt-P] (H-[dR]KKRR[Orn]RRR[βAla]LSSAAAGLYQLDT-OH; N-terminus and C-terminus assumed),4E-BP1,"sheet Fig.6d-e, animal 1",11.1631
same,ARTN,"sheet Fig.6d-e, animal 1",5.386
same,Beta-NGF,"sheet Fig.6d-e, animal 1",-0.391
same,CST5,"sheet Fig.6d-e, animal 1",1.859
same,CXCL10,"sheet Fig.6d-e, animal 1",13.3461
same,FGF-19,"sheet Fig.6d-e, animal 1",2.165
same,HGF,"sheet Fig.6d-e, animal 1",6.396
same,IL8,"sheet Fig.6d-e, animal 1",0.86
same,IL-12B,"sheet Fig.6d-e, animal 1",2.007
same,IL-17A,"sheet Fig.6d-e, animal 1",3.739
same,IL-18R1,"sheet Fig.6d-e, animal 1",4.131
same,LAP TGF-beta-1,"sheet Fig.6d-e, animal 1",6.199
same,TRAIL,"sheet Fig.6d-e, animal 1",1.379
same,TWEAK,"sheet Fig.6d-e, animal 1",8.018
same,VEGFA,"sheet Fig.6d-e, animal 1",14.7314
same,4E-BP1,"sheet Fig.6d-e, animal 2",11.0835
same,ARTN,"sheet Fig.6d-e, animal 2",5.243
same,Beta-NGF,"sheet Fig.6d-e, animal 2",-0.4548
same,CST5,"sheet Fig.6d-e, animal 2",2.027
same,CXCL10,"sheet Fig.6d-e, animal 2",13.3201
same,FGF-19,"sheet Fig.6d-e, animal 2",2.0905
same,HGF,"sheet Fig.6d-e, animal 2",6.305
same,IL8,"sheet Fig.6d-e, animal 2",0.7089
same,IL-12B,"sheet Fig.6d-e, animal 2",2.204
same,IL-17A,"sheet Fig.6d-e, animal 2",3.881
same,IL-18R1,"sheet Fig.6d-e, animal 2",4.133
same,LAP TGF-beta-1,"sheet Fig.6d-e, animal 2",6.253
same,TRAIL,"sheet Fig.6d-e, animal 2",1.569
same,TWEAK,"sheet Fig.6d-e, animal 2",8.091
same,VEGFA,"sheet Fig.6d-e, animal 2",14.6793
same,4E-BP1,"sheet Fig.6d-e, animal 3",10.8123
same,ARTN,"sheet Fig.6d-e, animal 3",5.723
same,Beta-NGF,"sheet Fig.6d-e, animal 3",-0.3222
same,CST5,"sheet Fig.6d-e, animal 3",2.133
same,CXCL10,"sheet Fig.6d-e, animal 3",13.0806
same,FGF-19,"sheet Fig.6d-e, animal 3",2.37
same,HGF,"sheet Fig.6d-e, animal 3",6.6
same,IL8,"sheet Fig.6d-e, animal 3",0.7009
same,IL-12B,"sheet Fig.6d-e, animal 3",2.082
same,IL-17A,"sheet Fig.6d-e, animal 3",4.127
same,IL-18R1,"sheet Fig.6d-e, animal 3",4.157
same,LAP TGF-beta-1,"sheet Fig.6d-e, animal 3",6.359
same,TRAIL,"sheet Fig.6d-e, animal 3",1.603
same,TWEAK,"sheet Fig.6d-e, animal 3",8.37
same,VEGFA,"sheet Fig.6d-e, animal 3",14.8087
same,4EBP-1,"sheet SFig5, animal 1",11.7332
same,ARTN,"sheet SFig5, animal 1",5.386
same,CST5,"sheet SFig5, animal 1",1.859
same,FGF-19,"sheet SFig5, animal 1",2.165
same,HGF,"sheet SFig5, animal 1",4.42
same,IL-8,"sheet SFig5, animal 1",0.86
same,IL-12B,"sheet SFig5, animal 1",2.007
same,IL-17A,"sheet SFig5, animal 1",1.782
same,IL-18R1,"sheet SFig5, animal 1",4.131
same,LAPTGFb-1,"sheet SFig5, animal 1",4.365
same,TRAIL,"sheet SFig5, animal 1",1.379
same,TWAEK,"sheet SFig5, animal 1",5.713
same,VEGFA,"sheet SFig5, animal 1",13.2543
same,bNGF,"sheet SFig5, animal 1",-0.391
same,4EBP-1,"sheet SFig5, animal 2",11.7927
same,ARTN,"sheet SFig5, animal 2",5.243
same,CST5,"sheet SFig5, animal 2",2.027
same,CXCL10,"sheet SFig5, animal 2",11.2953
same,FGF-19,"sheet SFig5, animal 2",2.0905
same,HGF,"sheet SFig5, animal 2",4.269
same,IL-8,"sheet SFig5, animal 2",0.7089
same,IL-12B,"sheet SFig5, animal 2",2.204
same,IL-17A,"sheet SFig5, animal 2",1.942
same,IL-18R1,"sheet SFig5, animal 2",4.133
same,LAPTGFb-1,"sheet SFig5, animal 2",4.29
same,TRAIL,"sheet SFig5, animal 2",1.569
same,TWAEK,"sheet SFig5, animal 2",5.701
same,VEGFA,"sheet SFig5, animal 2",13.2545
same,bNGF,"sheet SFig5, animal 2",-0.4548
same,4EBP-1,"sheet SFig5, animal 3",11.484
same,ARTN,"sheet SFig5, animal 3",5.723
same,CST5,"sheet SFig5, animal 3",2.133
same,CXCL10,"sheet SFig5, animal 3",11.1526
same,FGF-19,"sheet SFig5, animal 3",2.37
same,HGF,"sheet SFig5, animal 3",4.697
same,IL-8,"sheet SFig5, animal 3",0.7009
same,IL-12B,"sheet SFig5, animal 3",2.082
same,IL-17A,"sheet SFig5, animal 3",2.371
same,IL-18R1,"sheet SFig5, animal 3",4.157
same,LAPTGFb-1,"sheet SFig5, animal 3",4.688
same,TRAIL,"sheet SFig5, animal 3",1.603
same,TWAEK,"sheet SFig5, animal 3",6.152
same,VEGFA,"sheet SFig5, animal 3",13.6674
same,bNGF,"sheet SFig5, animal 3",-0.3222
